US20100311827A1, “Chlorogenic acid derivatives and their use as anti-fungal agents” (priority 2006, published 2010)
Values after ≈ are worked out from the molar mass of the structure shown. Like-named read-outs stand apart in the source and are kept apart here.

Key:
brine shrimp = type: in vivo
Protocol: The general in vitro toxicity of these compounds can be tested using the Brine Shrimp Lethality assay, as described in Mclaughlin, J. L. in Methods in Plant Biochemistry. Ed. K. Hostettmann, Academic Press, London, 1991; Vol. 6, pp. 1-32. Typically, candidate compounds are diluted in seawater to a suitable concentration and added to second instar larvae of Artemia salina. After a suitable period of time, for example 24 hours, the survivors are counted. In vitro acute toxicity testing of a compound of Formula I can also be performed using mammalian cell lines (see, for example, Ekwall, B., Ann. N.Y. Acad. Sci., (1983) 407:64-77). Selection of an appropriate cell line is dependent on the potential application of the candidate compound and can be readily determined by one skilled in the art.
To test the general toxicity of these compounds, Brine Shrimp Lethality assay was carried out according to Mclaughlin, J. L. in Methods in Plant Biochemistry. Ed. K. Hostettmann, Academic Press, London, 1991; Vol. 6, pp. 1-32. The compounds were tested at 100 μg/ml.

Candida krusei ATCC6258 = test: Broth dilution anti-fungal susceptibility, MIC (as in Example 24); type: cell-based
[1] = test system: Aspergillus fumigatus (ATCC13073); test: Broth dilution anti-fungal susceptibility of filamentous fungi (NCCLS M38-A), MIC; type: cell-based; conditions: Table 1, MICs read at 80% inhibition, 35° C., 48 hours, tested 0.12 to 64 μg/ml
Protocol: (§1) The anti-fungal activity of the compounds according to the invention were evaluated against Candida albicans (ATCC90028), Cryptococcus neoformans (ATCC32045), and Aspergillus fumigatus (ATCC13073) according to NCCLS guidelines (NCCLS reference method for broth dilution anti-fungal susceptibility testing of yeasts; approved standard-second edition, M27-A2, National Committee for Clinical Laboratory Standards, Villanova, Pa. 2003; and NCCLS reference method for broth dilution anti-fungal susceptibility testing of filamentous fungi; approved standard, M38-A, National Committee for Clinical Laboratory Standards, Villanova, Pa. 2002).
(§2) The medium required for the evaluation of anti-fungal activity was prepared as follows. RPMI 1640 broth+MOPS, pH adjusted and filter sterilized. Sabouraud Dextrose Agar (SDA) plates were used for growing fungi.
(§3) All test or candidate compounds were prepared as 5 mg/ml stock solutions in DMSO and further diluted according to the NCCLS guidelines with sterile water or appropriate diluent. A working stock of 256 μg/ml was used to prepare 1:2 serial dilutions in 96-well plates.
(§4) The inoculums of fungi were prepared by making a direct sterile water suspension of colonies/spores from SDA plates. 0.1% Tween 20 was used for A. fumigatus for better dispersal of spores in suspension. For C. albicans and C. neoformans overnight cultures were used. A. fumigatus required longer incubation. Each fungal suspension was adjusted to read between 70 and 75% transmittance at 530 nm (0.5 McFarland Standard). These suspensions were further diluted 1/1000 in appropriate broth for inoculating the 96-well plates.
(§5) All plates were incubated at 35° C. for the following times: 18 hours to 24 hours for C. albicans, 48 hours for A. fumigatus, and 48 to 72 hours for C. neoformans.

[2] = test system: Candida albicans (ATCC90028); test: Broth dilution anti-fungal susceptibility (NCCLS M27-A2), MIC; type: cell-based; conditions: for MIC: Candida albicans, MICs read at 80% inhibition
Protocol: as §1, §2, §3, §4, §5

[3] = test system: Cryptococcus neoformans (ATCC32045); test: as above; type: cell-based; conditions: Table 1, MICs read at 80% inhibition, 35° C., 48 to 72 hours, tested 0.12 to 64 μg/ml
Protocol: as §1, §2, §3, §4, §5

[4] = comparison in words, from Table 3

## CCCCCCCCOc1ccc(NC(=O)C(NC(=O)C2(O)CC(O)C(O)C(OC(=O)/C=C/c3ccc(O)c(O)c3)C2)C(C)OC(C)(C)C)cc1 (stereo not drawn) [Compound 8]
Brine shrimp; at 100 μg/ml
  % BL (brine shrimp lethality): 50.0%
Brine shrimp; comparison in words, from Table 2
  toxicity on brine shrimp compared to chlorogenic acid: less toxicity
Candida krusei ATCC6258; Pichia kudriavzevii, ATCC6258, Table 3 (Example 26), MICs read at 80% inhibition, 0.12 to 64 μg/ml, read-out: MIC C. krusei
  MIC: 2 µg/mL (≈ 2.8 µM)
Candida krusei ATCC6258; [4]
  inhibitory activity against C. krusei compared to chlorogenic acid: more potent inhibitory activity
[1]
  MIC: > 64 µg/mL
[2]; ATCC90028, Table 1, 35° C., 18 to 24 hours, tested 0.12 to 64 μg/ml
  MIC: 2 µg/mL (≈ 2.8 µM)
[2]; ATCC90028, Table 3 (Example 26, additional testing), 0.12 to 64 μg/ml, read-out: MIC C. albicans
  MIC: 4 µg/mL (≈ 5.6 µM)
[2]; [4]
  inhibitory activity against C. albicans compared to chlorogenic acid: more potent inhibitory activity
[3]
  MIC: 1 µg/mL (≈ 1.4 µM)
